This is an account of results in patent US20090318468A1, “PYRAZOLE COMPOUNDS 436” (AstraZeneca AB, priority 2008, published 2009).

Data set [1] can be described thus: Protein binding by equilibrium dialysis (rat). The class given is in vitro ADME. Particulars: 20 μM compound, 10% plasma, 37° C., read-out: % free (protein binding). The method, then: (§1) Protein binding is determined by equilibrium dialysis. A 20 μM concentration of compound is dialyzed against 10% plasma at a temperature of 37° C. for 18 h. The resulting samples are analyzed using generic HPLC-UV methodology coupled with mass spectral peak identification. The reported K1 value is the first apparent association constant [proteináligand]/([protein][ligand]), all concentrations being measured in moles/liter (J. Med. Chem., 2006, 49(23), 6672-6682).
(§2) Protein binding can be measured in a high-throughput screen by equilibrium dialysis combined with liquid chromatography and mass spectrometry (Wan, H. and Rehngren, M., J. Chromatogr. A 2006, 1102, 125-134).
Background: Equilibrium dialysis compares concentrations on both sides of a semipermeable membrane.

The target of a further data set is FGFR1 (Homo sapiens, UniProt P11362). Kind of data set: FGFR1 Kinase Assay - Caliper Echo Dosing. Type of data set: biochemical. The settings on record: 408 uM ATP, separate test occasions listed, read-out: IC50 (inhibition of FGFR1 kinase activity). The method, then:
FGFR1 Kinase Assay—Caliper Echo Dosing
To determine inhibition of FGFR1 activity, kinase assays were conducted using Caliper technology.
Kinase activity assays were performed in Greiner 384-well low volume plates, with a total reaction volume of 12 ul per well. Final concentration of FGFR1 active kinase in each reaction well was 7.2 nM. The substrate for each assay was a custom peptide with fluorescent tag (13 amino acids in length, […] with the fluorescene tag on the first K).
Compounds were dispensed directly in to assay plates using a Labcyte Echo 550 acoustic droplet ejection unit. […]
Assay plates were incubated at room temperature for 1.5 h, before the reaction was stopped with the addition of buffer [comprising: 100 mM HEPES—pH 7.5, 0.033% Brij-35 (Sigma Catalogue No. B4184), 0.22% Caliper Coating Reagent #3 (Caliper Life Sciences Catalogue No. 760050), 88 mM EDTA, 5% DMSO]. Stopped assay plates were then read using the Caliper LabChip® LC3000 (which uses microfludics to measure a shift in mobility between fluorescent labelled peptide and the FGFR1 kinase—phosphorylated form of this peptide).
In the assay, compounds were tested at a range of concentrations. […] Percentage inhibition at 1 uM, as expressed herein, is a calculated value based on the curve fit that was generated experimentally. […] This value is calculated using a standard curve fitting software package Origin™. […]

The target in data set [2] is T1, human cytochrome P450 (CYP) 2D6 (Homo sapiens, UniProt P10635).
T1 construct: made in house; host or cells: yeast (microsomal fraction)
T1 sequence (P10635 whole entry): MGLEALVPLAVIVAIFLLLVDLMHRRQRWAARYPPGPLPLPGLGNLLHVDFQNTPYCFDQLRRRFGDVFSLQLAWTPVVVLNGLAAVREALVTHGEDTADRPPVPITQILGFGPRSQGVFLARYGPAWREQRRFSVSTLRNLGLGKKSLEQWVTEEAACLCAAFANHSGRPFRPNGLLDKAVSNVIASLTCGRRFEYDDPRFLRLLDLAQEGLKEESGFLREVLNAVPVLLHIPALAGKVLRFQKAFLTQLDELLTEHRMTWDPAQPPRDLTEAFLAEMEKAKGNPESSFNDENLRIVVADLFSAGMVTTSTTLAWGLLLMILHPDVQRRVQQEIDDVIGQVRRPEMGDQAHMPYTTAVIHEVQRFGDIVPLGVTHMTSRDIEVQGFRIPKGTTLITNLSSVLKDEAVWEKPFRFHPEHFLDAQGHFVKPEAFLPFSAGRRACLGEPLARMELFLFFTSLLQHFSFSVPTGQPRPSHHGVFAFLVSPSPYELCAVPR
Description: Cytochrome P450 Inhibition Assay, CYP 2D6. Type of data set: in vitro ADME. Particulars: test compound 0.1-10 μM, substrate MAMC. The method, then: (§3) Cytochrome P450 Inhibition Assay
(§4) The inhibitory potential (IC50) of test compounds against 5 human cytochrome P450 (CYP) isoforms (1A2, 2C9, 2C19, 3A4 and 2D6) was assessed using an automated fluorescent end point in vitro assay modified from Crespi (Crespi and Stresser, J Pharmacol Toxicol Methods 2000, 44: 325-331). Microsomal subcellular fractions prepared from Yeast cell lines expressing each human CYP isoform were used as an enzyme source in this assay. The activity of the 5 major human CYPs was determined from the biotransformation of a number of coumarin substrates to fluorescent metabolites, in the presence of NADPH. […] Stock solutions of each CYP, with its respective substrate, were prepared in phosphate buffer pH 7.4 (see Table 1) and 178 μl was added to the well of a black solid, flat bottom, 300 μl 96 well microtitre plate (Corning Costar). […] The appropriate solvent controls and substrate blanks were included in each experiment to assess control activity and identify any inherent fluorescence due to the test compounds. […] The plates were read on a fluorimeter (Spectrafluor Plus) at the appropriate excitation and emission wavelengths (listed in Table 2) and the percent activity, corrected for control, was plotted against the test compound concentration.

Data set [3] in a line: Clearance (pharmacokinetics) in rats. Type of data set: in vivo. Particulars: rat, whole blood, male rats, dose 0.927 mg/kg (2 umol/kg); for Vd: read-out: Vss. The protocol: For the rat dose of 0.927 mg/kg (2 umol/kg), the compounds were formulated in 20% DMA:80% sorensens buffer pH 5 at 1 umol/ml. Each formulation was dosed (2 mL/kg) to four male rats (250-300 g) which had free access to food. Blood samples were taken via the tail vein at 5 and 20 minutes, and 1 and 4 hours post dose from 2 rats, and at 10 and 40 minutes, and 2 and 6 hours from the other 2 rats. Terminal samples were taken at 12 hours from the first pair of rats and 24 hours from the second pair. The blood samples were diluted 1:1 with water prior to analysis.
A set of 10 calibration standards covering the concentration range (0.001 umol/L to 10 umol/L) were prepared by spiking blank matrix (1:1 blood:water). The samples and standards were extracted using a solid phase extraction plate, blown down under nitrogen, and then reconstituted in methanol:water (20:80). The samples were analysed using LC-MSMS and the results obtained were used to determine the area under the curve from time 0 to infinity [AUC0-inf (ug.hr/ml)], clearance [Cl (ml/min/kg)] and the steady state volume distribution [Vss (L/kg)] for each compound.

Data set [4] deals with T2, human cytochrome P450 (CYP) 3A4 (Homo sapiens, UniProt P08684).
T2 construct: made in house; host or cells: yeast (microsomal fraction)
T2 sequence (P08684 whole entry): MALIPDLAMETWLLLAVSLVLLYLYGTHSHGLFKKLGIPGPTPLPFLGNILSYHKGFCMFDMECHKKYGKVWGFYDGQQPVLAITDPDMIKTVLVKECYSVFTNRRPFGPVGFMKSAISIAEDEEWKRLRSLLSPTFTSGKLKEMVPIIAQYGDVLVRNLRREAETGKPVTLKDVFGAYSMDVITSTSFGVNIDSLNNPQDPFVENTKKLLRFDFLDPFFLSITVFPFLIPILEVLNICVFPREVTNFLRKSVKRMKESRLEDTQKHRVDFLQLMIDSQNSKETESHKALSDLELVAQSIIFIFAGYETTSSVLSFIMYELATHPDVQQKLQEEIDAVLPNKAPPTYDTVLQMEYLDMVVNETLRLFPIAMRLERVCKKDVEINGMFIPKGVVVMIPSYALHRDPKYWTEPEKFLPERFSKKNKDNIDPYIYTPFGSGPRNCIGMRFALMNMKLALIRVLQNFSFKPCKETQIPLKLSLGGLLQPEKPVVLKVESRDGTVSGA
Description: Cytochrome P450 Inhibition Assay, CYP 3A4. Particulars: test compound 0.1-10 μM, substrate BFC. The class given is in vitro ADME. The method, then:
as §3, §4

Data set [5] can be described thus: Protein binding by equilibrium dialysis (human). The class given is in vitro ADME. The settings on record: 20 μM compound, 10% plasma, 37° C., read-out: % free (protein binding). The method, then: as §1, §2

As usually defined, the IC50 is the concentration at which inhibition is half-maximal. Usually AUC(0-inf) stands for the area under the concentration-time curve extrapolated to infinity. Usually clearance stands for the rate of elimination divided by the concentration. A lower clearance goes with a low capacity for elimination.

Where “and” joins values, the source holds several entries; their conditions need not be identical. Identical values can stand only once.

Sequence of FGFR1 (P11362 22-822): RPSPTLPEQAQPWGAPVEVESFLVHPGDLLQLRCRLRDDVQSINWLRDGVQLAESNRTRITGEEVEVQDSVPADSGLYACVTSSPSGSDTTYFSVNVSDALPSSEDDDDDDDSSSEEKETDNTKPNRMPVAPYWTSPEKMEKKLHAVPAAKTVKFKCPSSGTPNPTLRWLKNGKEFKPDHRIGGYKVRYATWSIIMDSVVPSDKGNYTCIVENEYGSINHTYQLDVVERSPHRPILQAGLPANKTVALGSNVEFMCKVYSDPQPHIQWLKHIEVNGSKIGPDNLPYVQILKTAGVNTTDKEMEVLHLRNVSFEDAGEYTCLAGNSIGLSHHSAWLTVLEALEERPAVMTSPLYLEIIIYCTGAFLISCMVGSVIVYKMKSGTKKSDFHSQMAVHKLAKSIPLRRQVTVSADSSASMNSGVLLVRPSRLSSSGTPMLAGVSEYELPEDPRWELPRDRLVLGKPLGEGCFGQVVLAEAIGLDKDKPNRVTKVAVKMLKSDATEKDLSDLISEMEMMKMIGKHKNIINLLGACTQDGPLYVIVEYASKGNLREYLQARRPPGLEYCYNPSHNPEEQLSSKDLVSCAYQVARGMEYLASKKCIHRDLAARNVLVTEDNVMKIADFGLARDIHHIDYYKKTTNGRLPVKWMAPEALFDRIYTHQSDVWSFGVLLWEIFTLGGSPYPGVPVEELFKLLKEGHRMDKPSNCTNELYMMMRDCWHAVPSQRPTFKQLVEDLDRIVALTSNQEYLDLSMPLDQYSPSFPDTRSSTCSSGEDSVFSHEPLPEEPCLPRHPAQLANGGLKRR

Take `COc1cc(CCc2cc(NC(=O)c3ccc(N4CCN(C)[C@@H](C)C4)cc3)[nH]n2)cc(OC)c1` [Example 1a, (S)—N-(3-(3,5-Dimethoxyphenethyl)-1H-pyrazol-5-yl)-4-(3,4-dimethylpiperazin-1-yl)benzamide]: the figures for the fraction unbound at 18 h, 20 μM in data set [1] and in data set [5] were 0.0091 and 0.0372, respectively. The values for the IC50 (on FGFR1; in data set [2]; in data set [4]) were 0.74 nM, > 10000 nM and 2940 nM, respectively. This compound gave an AUC(0-inf) in data set [3] of 254 ng·h/mL. The compound also displayed a clearance in data set [3] of 60.9 mL/min/kg. Moreover, the Vd in data set [3] stood at 2.58 L/kg.
For the compound `COc1cc(CCc2cc(NC(=O)c3ccc(N4CCN(C)[C@H](C)C4)cc3)[nH]n2)cc(OC)c1` [Example 1b, (R)—N-(3-(3,5-Dimethoxyphenethyl)-1H-pyrazol-5-yl)-4-(3,4-dimethylpiperazin-1-yl)benzamide], the fraction unbound at 18 h, 20 μM turned out to be 0.0062 in data set [1] and 0.0279 in data set [5]. Further, the IC50 was 1.1 nM and 0.64 nM and 0.76 nM at FGFR1; > 10000 nM in data set [2]; > 10000 nM in data set [4]. For the same compound, the AUC(0-inf) in data set [3] came out at 473 ng·h/mL. In data set [3], this compound gave a clearance of 32.7 mL/min/kg. In data set [3], the Vd amounted to 1.74 L/kg.
